Where “and” joins values, the source holds several entries; their conditions need not be identical. Equal entries are not always repeated. ± gives the expanded uncertainty stated by the source.
How the values were obtained:
[1] = Molar enthalpy of transition or fusion; conditions: Crystal; DSC
[2] = molar enthalpy of transition or fusion; conditions: Crystal, DSC
[3] = molar enthalpy of vaporization or sublimation
[4] = molar heat capacity at constant pressure; conditions: 101.33 kPa, Crystal, Flow calorimetry

O=C(O)c1cc(Br)ccc1Br [2,5-dibromobenzoic acid]
Conditions | Molar enthalpy of transition or fusion [kcal/mol]
[1] | 8.77 ± 0.884

Conditions | Normal melting temperature [°C] | molar enthalpy of transition or fusion [kcal/mol] | molar heat capacity at constant pressure
Crystal, DTA | 155 ± 0.5 | – | –
[2], 298.15 K | – | 31.6 ± 1.55 | –
[2], 428 K | – | 30.7 ± 1.12 | –
[4], 288.2 K | – | – | 216 ± 0.9 J/K/mol and 215.9 ± 0.9 J/K/mol
[4], 290.2 K | – | – | 217.4 ± 1 J/K/mol and 217.6 ± 1 J/K/mol and 217.5 ± 1 J/K/mol
[4], 292.2 K | – | – | 219.4 ± 1 J/K/mol and 219.3 ± 1 J/K/mol
[4], 294.2 K | – | – | 220.4 ± 0.8 J/K/mol and 220.6 ± 0.8 J/K/mol and 220.5 ± 0.8 J/K/mol
[4], 296.2 K | – | – | 221.5 ± 0.8 J/K/mol and 221.4 ± 0.8 J/K/mol and 221.7 ± 0.8 J/K/mol
[4], 298.2 K | – | – | 222.9 ± 0.9 J/K/mol and 223 ± 0.9 J/K/mol and 223.1 ± 0.9 J/K/mol
[4], 300.2 K | – | – | 224.7 ± 0.9 J/K/mol and 224.8 ± 0.9 J/K/mol
[4], 302.2 K | – | – | 225.9 ± 0.8 J/K/mol and 225.6 ± 0.8 J/K/mol and 225.8 ± 0.8 J/K/mol
[4], 304.2 K | – | – | 227 ± 0.9 J/K/mol and 227.3 ± 0.9 J/K/mol and 227.1 ± 0.9 J/K/mol
[4], 306.2 K | – | – | 228.3 ± 0.9 J/K/mol and 228.4 ± 0.9 J/K/mol and 228.5 ± 0.9 J/K/mol
[4], 308.2 K | – | – | 229.8 ± 1 J/K/mol and 229.6 ± 1 J/K/mol
[4], 310.2 K | – | – | 231.7 ± 0.9 J/K/mol and 231.6 ± 0.9 J/K/mol and 231.5 ± 0.9 J/K/mol
[4], 312.2 K | – | – | 232.5 ± 0.8 J/K/mol and 232.4 ± 0.8 J/K/mol and 232.3 ± 0.8 J/K/mol
[4], 314.2 K | – | – | 234 ± 0.9 J/K/mol and 233.9 ± 0.9 J/K/mol and 234.1 ± 0.9 J/K/mol
[4], 316.2 K | – | – | 235.3 ± 0.9 J/K/mol and 235.2 ± 0.9 J/K/mol
[4], 318.2 K | – | – | 237 ± 0.9 J/K/mol and 236.8 ± 0.9 J/K/mol and 236.9 ± 0.9 J/K/mol
[4], 320.2 K | – | – | 238.4 ± 0.7 J/K/mol and 238.5 ± 0.7 J/K/mol and 238.3 ± 0.7 J/K/mol
[4], 322.2 K | – | – | 239.1 ± 0.8 J/K/mol and 239 ± 0.8 J/K/mol
[4], 324.2 K | – | – | 240.7 ± 1 J/K/mol and 240.5 ± 1 J/K/mol and 240.4 ± 1 J/K/mol
[4], 326.2 K | – | – | 242.4 ± 1 J/K/mol and 242.1 ± 0.9 J/K/mol and 242.3 ± 1 J/K/mol

Conditions | vapor or sublimation pressure [kPa]
346.8 K, Crystal, Torsion effusion method | 4.7e-05 ± 2.1e-05
348.6 K, Crystal, Torsion effusion method | 5.7e-05 ± 2.2e-05
350 K, Crystal, Torsion effusion method | 7.6e-05 ± 2.3e-05
350.2 K, Crystal, Torsion effusion method | 7.6e-05 ± 2.3e-05
352.2 K, Crystal, Torsion effusion method | 9.5e-05 ± 2.3e-05
353 K, Crystal, Torsion effusion method | 0.000114 ± 2.5e-05
353.5 K, Crystal, Torsion effusion method | 0.000114 ± 2.5e-05
353.6 K, Crystal, Torsion effusion method | 0.000114 ± 2.5e-05
354.3 K, Crystal, Torsion effusion method | 0.000133 ± 2.8e-05
354.8 K, Crystal, Torsion effusion method | 0.000133 ± 3.1e-05
356.1 K, Crystal, Torsion effusion method | 0.000171 ± 3.1e-05
356.2 K, Crystal, Torsion effusion method | 0.000152 ± 3e-05
356.8 K, Crystal, Torsion effusion method | 0.000171 ± 3e-05
357.3 K, Crystal, Torsion effusion method | 0.000189 ± 3.8e-05
357.8 K, Crystal, Torsion effusion method | 0.000208 ± 3.8e-05
358.3 K, Crystal, Torsion effusion method | 0.000208 ± 2.9e-05
359.2 K, Crystal, Torsion effusion method | 0.000246 ± 3.1e-05
359.6 K, Crystal, Torsion effusion method | 0.000227 ± 3.7e-05
360.2 K, Crystal, Torsion effusion method | 0.000246 ± 3.6e-05
360.4 K, Crystal, Torsion effusion method | 0.000265 ± 3.3e-05
361.5 K, Crystal, Torsion effusion method | 0.000303 ± 5e-05
361.7 K, Crystal, Torsion effusion method | 0.000303 ± 4.9e-05
362.4 K, Crystal, Torsion effusion method | 0.00036 ± 4.4e-05
362.5 K, Crystal, Torsion effusion method | 0.000322 ± 4.2e-05
363 K, Crystal, Torsion effusion method | 0.000379 ± 7e-05
363.8 K, Crystal, Torsion effusion method | 0.000388 ± 5.5e-05
364.6 K, Crystal, Torsion effusion method | 0.000493 ± 4.4e-05
364.7 K, Crystal, Torsion effusion method | 0.000474 ± 4.5e-05
365.6 K, Crystal, Torsion effusion method | 0.000474 ± 6.7e-05
366.2 K, Crystal, Torsion effusion method | 0.000493 ± 5.5e-05
367.3 K, Crystal, Torsion effusion method | 0.000606 ± 0.0001
367.6 K, Crystal, Torsion effusion method | 0.000701 ± 0.0001
367.7 K, Crystal, Torsion effusion method | 0.000682 ± 0.0001
369.1 K, Crystal, Torsion effusion method | 0.000777 ± 7e-05
369.7 K, Crystal, Torsion effusion method | 0.000834 ± 0.0001
370.5 K, Crystal, Torsion effusion method | 0.000853 ± 0.00011
370.7 K, Crystal, Torsion effusion method | 0.000947 ± 0.00011
371.2 K, Crystal, Torsion effusion method | 0.001023 ± 0.00011
372.3 K, Crystal, Torsion effusion method | 0.001099 ± 9.4e-05
373 K, Crystal, Torsion effusion method | 0.001175 ± 0.00013
373.5 K, Crystal, Torsion effusion method | 0.001213 ± 0.00015
373.7 K, Crystal, Torsion effusion method | 0.00127 ± 0.00014
375.4 K, Crystal, Torsion effusion method | 0.001516 ± 0.00021
376.8 K, Crystal, Torsion effusion method | 0.001914 ± 0.00029
376.9 K, Crystal, Torsion effusion method | 0.001762 ± 0.00018
440.2 K, Liquid, non-isothermal thermogravimetric | 0.643 ± 0.11
440.5 K, Liquid, non-isothermal thermogravimetric | 0.663 ± 0.091
441.3 K, Liquid, non-isothermal thermogravimetric | 0.731 ± 0.094
442.1 K, Liquid, non-isothermal thermogravimetric | 0.732 ± 0.095
443.1 K, Liquid, isothermal thermogravimetric | 0.819 ± 0.06
444 K, Liquid, isothermal thermogravimetric | 0.821 ± 0.092
444.1 K, Liquid, isothermal thermogravimetric | 0.835 ± 0.09
444.1 K, Liquid, non-isothermal thermogravimetric | 0.844 ± 0.098
444.6 K, Liquid, non-isothermal thermogravimetric | 0.841 ± 0.092
444.8 K, Liquid, isothermal thermogravimetric | 0.822 ± 0.082
445.4 K, Liquid, non-isothermal thermogravimetric | 0.919 ± 0.092
446.3 K, Liquid, non-isothermal thermogravimetric | 0.924 ± 0.096
447 K, Liquid, isothermal thermogravimetric | 1.031 ± 0.087
448.1 K, Liquid, isothermal thermogravimetric | 1.01 ± 0.091
448.3 K, Liquid, isothermal thermogravimetric | 1.044 ± 0.089
448.3 K, Liquid, non-isothermal thermogravimetric | 1.04 ± 0.1
448.7 K, Liquid, isothermal thermogravimetric | 1.012 ± 0.089
448.8 K, Liquid, non-isothermal thermogravimetric | 1.066 ± 0.1
449.2 K, Liquid, non-isothermal thermogravimetric | 1.146 ± 0.1
450.1 K, Liquid, non-isothermal thermogravimetric | 1.151 ± 0.11
451.2 K, Liquid, isothermal thermogravimetric | 1.291 ± 0.11
452 K, Liquid, non-isothermal thermogravimetric | 1.302 ± 0.12
452.1 K, Liquid, isothermal thermogravimetric | 1.259 ± 0.11
452.3 K, Liquid, isothermal thermogravimetric | 1.306 ± 0.1
452.9 K, Liquid, isothermal thermogravimetric | 1.282 ± 0.1
452.9 K, Liquid, non-isothermal thermogravimetric | 1.335 ± 0.1
453.1 K, Liquid, non-isothermal thermogravimetric | 1.404 ± 0.099
454.2 K, Liquid, non-isothermal thermogravimetric | 1.429 ± 0.098
455.1 K, Liquid, isothermal thermogravimetric | 1.608 ± 0.11
456.1 K, Liquid, isothermal thermogravimetric | 1.617 ± 0.12
456.2 K, Liquid, isothermal thermogravimetric | 1.573 ± 0.11
456.3 K, Liquid, non-isothermal thermogravimetric | 1.578 ± 0.11
456.7 K, Liquid, non-isothermal thermogravimetric | 1.622 ± 0.11
456.8 K, Liquid, isothermal thermogravimetric | 1.602 ± 0.11
457.1 K, Liquid, non-isothermal thermogravimetric | 1.739 ± 0.12
458.2 K, Liquid, non-isothermal thermogravimetric | 1.752 ± 0.1
459.3 K, Liquid, isothermal thermogravimetric | 1.974 ± 0.1
460 K, Liquid, isothermal thermogravimetric | 1.91 ± 0.14
460.1 K, Liquid, non-isothermal thermogravimetric | 1.931 ± 0.14
460.3 K, Liquid, isothermal thermogravimetric | 1.994 ± 0.14
460.6 K, Liquid, non-isothermal thermogravimetric | 1.967 ± 0.12
461 K, Liquid, isothermal thermogravimetric | 1.945 ± 0.13
461.2 K, Liquid, non-isothermal thermogravimetric | 2.111 ± 0.14
462.1 K, Liquid, non-isothermal thermogravimetric | 2.123 ± 0.14
463.1 K, Liquid, isothermal thermogravimetric | 2.39 ± 0.14
464.1 K, Liquid, isothermal thermogravimetric | 2.401 ± 0.17
464.2 K, Liquid, non-isothermal thermogravimetric | 2.396 ± 0.17
464.3 K, Liquid, isothermal thermogravimetric | 2.319 ± 0.15
464.8 K, Liquid, isothermal thermogravimetric | 2.362 ± 0.14
464.8 K, Liquid, non-isothermal thermogravimetric | 2.456 ± 0.15
465.4 K, Liquid, non-isothermal thermogravimetric | 2.637 ± 0.14
466.2 K, Liquid, non-isothermal thermogravimetric | 2.643 ± 0.15
467 K, Liquid, isothermal thermogravimetric | 2.886 ± 0.19
467.1 K, Liquid, isothermal thermogravimetric | 2.776 ± 0.18
468.1 K, Liquid, non-isothermal thermogravimetric | 2.879 ± 0.15
468.2 K, Liquid, isothermal thermogravimetric | 2.931 ± 0.15
468.5 K, Liquid, non-isothermal thermogravimetric | 2.897 ± 0.14
468.7 K, Liquid, isothermal thermogravimetric | 2.855 ± 0.078

[3]
Conditions | molar enthalpy [kcal/mol]
298.15 K, Crystal, Torsion-effucion | 31.9 ± 0.478
428 K, Liquid, DSC | 22.2 ± 0.693

Reference: the NIST ThermoML archive (doi:10.1016/j.fluid.2012.11.006)
